Assays:
P388 cell line = test: P388 Murine Lymphocytic Leukemia Cell Assay; assay type: cell-based
Method: Cells from a P388 cell line (CellGate, Inc., Sunnyvale, Calif.) are grown in RPMI 1640 cell medium containing fetal calf serum (10%), L-glutamine, penicillin, streptomycin and are split twice weekly. All compounds are first diluted with DMSO. Later serial dilutions are done with a phosphate buffer solution (HYQ DPBS modified phosphate buffered saline). All dilutions are done in glass vials and the final DMSO concentration is always below 0.5% by volume. Final two-fold dilutions are done in a 96 well plate using cell media so that each well contains 50 μL. All compounds are assayed in quadruplicate over 12 concentrations. Cell concentration is measured using a hemacytometer and the final cell concentration is adjusted to 1×10^4 cells/mL with cell medium. The resulting solution of cells (50 μL) is then added to each well and the plates are incubated for 5 days in a 37° C., 5% CO2, humidified incubator (Sanyo CO2 incubator). MTT solution (3-[4,5-dimethylthiazol-2-yl]-2,5-diphenyltetrazolium bromide, 10 μL) is then added to each well and the plates are re-incubated under identical conditions for 2 h. To each well is then added acidified isopropanol (150 μL of i-PrOH solution containing 0.05 N HCl) and mixed thoroughly. The plates are then scanned at 595 nm and the absorbances are read (Wallac Victor 1420 Multilabel Counter). The resulting data is then analyzed to determine an ED50 value using the Prism software package (GraphPad).

MDA-MB-231/ATCC = test: NCI growth inhibition, MDA-MB-231/ATCC (Breast); assay type: cell-based, human
NCI-H322M = test: NCI growth inhibition, NCI-H322M (NSC Lung); assay type: cell-based, human
SK-MEL-5 = test: NCI growth inhibition, SK-MEL-5 (Melanoma); assay type: cell-based, human
HOP-92 = test: NCI growth inhibition, HOP-92 (NSC Lung); assay type: cell-based, human
CAKI-1 = test: NCI growth inhibition, CAKI-1 (Renal); assay type: cell-based, human
TK-10 = test: NCI growth inhibition, TK-10 (Renal); assay type: cell-based, human
786-0 = test: NCI growth inhibition, 786-0 (Renal); assay type: cell-based, human
DU-145 = test: NCI growth inhibition, DU-145 (Prostate); assay type: cell-based, human
U251 = test: NCI growth inhibition, U251 (CNS); assay type: cell-based, human
HOP-62 = test: NCI growth inhibition, HOP-62 (NSC Lung); assay type: cell-based, human
UO-31 = test: NCI growth inhibition, UO-31 (Renal); assay type: cell-based, human
SF-539 = test: NCI growth inhibition, SF-539 (CNS); assay type: cell-based, human
SN12C = test: NCI growth inhibition, SN12C (Renal); assay type: cell-based, human
UACC-257 = test: NCI growth inhibition, UACC-257 (Melanoma); assay type: cell-based, human
CCRF-CEM = test: NCI growth inhibition, CCRF-CEM (Leukemia); assay type: cell-based, human
MI4 = test: NCI growth inhibition, MI4 (Melanoma); assay type: cell-based, human
RPMI-8226 = test: NCI growth inhibition, RPMI-8226 (Leukemia); assay type: cell-based, human

For `CCCCCCCC(=O)OC1C(=CC(=O)OC)CC2CC(CO)OC(=O)CC(O)CC3CCCC(CC4CCOC(C=CC(C)(C)C1(O)O2)O4)O3` (stereo not drawn) [Formula IIa (702.1)], the “activity in P388 assay relative to comparison analogues” value (P388 cell line; 702.1 vs C26 methyl-containing analogue, 48, 49 vs other C20 esters) was “significantly higher activity”, the “P388 Assay ED50” value (P388 cell line; 5 days incubation, MTT) was 17 nM and the “Difference of GI50 (log), Desmethyl vs Bryo-1” value (shortened to “Difference of GI50 (log)”) (MDA-MB-231/ATCC) was −0.49. The GI50 (MDA-MB-231/ATCC; Breast) was −5.69 log of molar concentration, the “Difference of GI50 (log)” value (NCI-H322M) was 1.62 and the GI50 (NCI-H322M; NSC Lung) was −4.38 log of molar concentration. The “Difference of GI50 (log)” value (SK-MEL-5; SK-MEL-5) was −0.73, the GI50 (SK-MEL-5; SK-MEL-5, Melanoma) was −6.43 log of molar concentration and the “Difference of GI50 (log)” value (HOP-92; HOP-92) was 0.63. For the same molecule, the GI50 (HOP-92; HOP-92, NSC Lung) was −4.67 log of molar concentration, the “Difference of GI50 (log)” value (CAKI-1; CAKI-1) was −0.30 and the GI50 (CAKI-1; CAKI-1, Renal) was −5.7 log of molar concentration. For the same molecule, the “Difference of GI50 (log)” value (TK-10; TK-10) was −2.03, the GI50 (TK-10; TK-10, Renal) was −7.03 log of molar concentration and the “more active than bryostatin-1” value (TK-10; TK-10, Renal) was “more than 2 orders of magnitude”. For the same molecule, the “Difference of GI50 (log)” value (786-0; 786-0) was −0.26, the GI50 (786-0; 786-0, Renal) was −5.46 log of molar concentration and the “Difference of GI50 (log)” value (DU-145; DU-145) was −0.02. For the same molecule, the GI50 (DU-145; DU-145, Prostate) was −5.02 log of molar concentration, the “Difference of GI50 (log)” value (U251; U251) was −0.30 and the GI50 (U251; U251, CNS) was −5.4 log of molar concentration. For the same molecule, the GI50 (HOP-62) was −4.79 log of molar concentration, the “Difference of GI50 (log)” value (UO-31; UO-31) was 0.75 and the GI50 (UO-31; UO-31, Renal) was −4.85 log of molar concentration. The “Difference of GI50 (log)” value (SF-539; SF-539) was −0.77, the GI50 (SF-539; SF-539, CNS) was −5.77 log of molar concentration and the “Difference of GI50 (log)” value (SN12C) was −0.49. The GI50 (SN12C; Renal) was −5.59 log of molar concentration, the “Difference of GI50 (log)” value (UACC-257; UACC-257) was −0.03 and the GI50 (UACC-257; UACC-257, Melanoma) was −5.13 log of molar concentration. The “Difference of GI50 (log)” value (CCRF-CEM) was −0.51, the GI50 (CCRF-CEM; Leukemia) was −5.81 log of molar concentration and the “Difference of GI50 (log)” value (MI4; MI4) was −0.26. The GI50 (MI4; MI4, Melanoma) was −5.26 log of molar concentration, the “Difference of GI50 (log)” value (RPMI-8226; RPMI-8226) was −0.82 and the GI50 (RPMI-8226; RPMI-8226, Leukemia) was −5.82 log of molar concentration.

Reference: US8497385B2, “Bryostatin analogues, synthetic methods and uses” (The Board of Trustees of the Leland Stanford Junior …, priority 2007, dated 2013)
